Source: patent publication US10947188B2, “Small molecule ferroptosis inducers” (THE TRUSTEES OF COLUMBIA UNIVERSITY IN THE CITY OF NEW YORK, priority 2016, dated 2021)

Legend:
[1] = test system: HT-1080; test: Modulatory profiling: Alamar Blue viability, lethal compound cotreated with death modulator (EC50, AUC); type: cell-based; set-up: AUC, modulator HT.3MA / AUC, modulator HT.ALLN / AUC HT.ATA / AUC HT.ActD / AUC HT.BHA / AUC HT.BHT / AUC HT.BocD / AUC HT.CHX / AUC HT.Co2+ / AUC HT.DPQ / AUC HT.EGTA / AUC HT.Lmim / AUC HT.NAD+ / AUC HT.Nec-1 / AUC HT.SP600125 / AUC HT.TLCK / AUC HT.U0126: unit not given beside the values; conditions: for AUC, modulator HT.3MA / AUC, modulator HT.ALLN: HT-1080 cells, modulatory profile value (AUC); for AUC, modulator HT.3MA: lethal compound cotreated with modulator 3MA; for AUC HT.ATA: HT-1080, modulator ATA; for AUC HT.ActD: HT-1080, modulator ActD; for AUC HT.BHA: HT-1080, modulator BHA; for AUC HT.BHT: HT-1080, modulator BHT; for AUC HT.BocD: HT-1080, modulator BocD; for AUC HT.CHX: HT-1080, modulator CHX; for AUC HT.Co2+: HT-1080, modulator Co2+; for AUC HT.CspA: HT-1080, modulator CspA; for AUC HT.DPQ: HT-1080, modulator DPQ; for AUC HT.EGTA: HT-1080, modulator EGTA; for AUC HT.Gd3+: HT-1080, modulator Gd3+; for AUC HT.LNAME: HT-1080, modulator LNAME; for AUC HT.Lmim: HT-1080, modulator Lmim; for AUC HT.NAD+: HT-1080, modulator NAD+; for AUC HT.NMMA: HT-1080, modulator NMMA; for AUC HT.Nec-1: HT-1080, modulator Nec-1; for AUC HT.Pepstatin: HT-1080, modulator Pepstatin; for AUC HT.SP600125: HT-1080, modulator SP600125; for AUC HT.TLCK: HT-1080, modulator TLCK; for AUC HT.U0126: HT-1080, modulator U0126; for HT.atoc (AUC) / HT.bCarotene (AUC) / HT.deferox (AUC) / HT.digoxin (AUC) / HT.trolox (AUC) / HT.zVAD (AUC): HT-1080; for HT.atoc (AUC): modulator atoc; for HT.bCarotene (AUC): modulator bCarotene; for HT.deferox (AUC): modulator deferox; for HT.digoxin (AUC): modulator digoxin; for HT.trolox (AUC): modulator trolox; for HT.zVAD (AUC): modulator zVAD; for AUC, modulator HT.ALLN: lethal compound cotreated with modulator ALLN; for AUC HT.BHA: reference of the scale not given here; for AUC HT.EGTA: reference of the scale not given here
[2] = test system: BJeLR; test: as above; type: cell-based, human; set-up: AUC, modulator BJ.Gd3+ / AUC, modulator BJ.LNAME / AUC, modulator BJ.Lmin / AUC, modulator BJ.3MA / AUC, modulator BJ.ALLN / AUC, modulator BJ.Boc D / AUC, modulator BJ.CHX / AUC, modulator BJ.Co2+ / AUC, modulator BJ.Nec-1 / AUC, modulator BJ.Pepstatin / AUC, modulator BJ.TLCK / AUC, modulator BJ.atoc / AUC, modulator BJ.trolox / AUC, modulator BJ.zVAD: unit not given beside the values; conditions: BJeLR cells, modulatory profile value (AUC); for AUC, modulator BJ.3MA: lethal compound cotreated with modulator 3MA; for AUC, modulator BJ.ALLN: lethal compound cotreated with modulator ALLN; for AUC, modulator BJ.Boc D: lethal compound cotreated with modulator Boc D; for AUC, modulator BJ.CHX: lethal compound cotreated with modulator CHX; for AUC, modulator BJ.Co2+: lethal compound cotreated with modulator Co2+; for AUC, modulator BJ.DPQ: lethal compound cotreated with modulator DPQ; for AUC, modulator BJ.Gd3+: lethal compound cotreated with modulator Gd3+; for AUC, modulator BJ.LNAME: lethal compound cotreated with modulator LNAME; for AUC, modulator BJ.Lmin: lethal compound cotreated with modulator Lmin; for AUC, modulator BJ.NAD+: lethal compound cotreated with modulator NAD+; for AUC, modulator BJ.NMMA: lethal compound cotreated with modulator NMMA; for AUC, modulator BJ.Nec-1: lethal compound cotreated with modulator Nec-1; for AUC, modulator BJ.Pepstatin: lethal compound cotreated with modulator Pepstatin; for AUC, modulator BJ.TLCK: lethal compound cotreated with modulator TLCK; for AUC, modulator BJ.atoc: lethal compound cotreated with modulator atoc; for AUC, modulator BJ.trolox: lethal compound cotreated with modulator trolox; for AUC, modulator BJ.zVAD: lethal compound cotreated with modulator zVAD; for AUC, modulator BJ.Lmin/NAD+: lethal compound cotreated with modulator Lmin/NAD+; for AUC, modulator BJ.3MA: reference of the scale not given here; for AUC, modulator BJ.ALLN: reference of the scale not given here; for AUC, modulator BJ.Boc D: reference of the scale not given here; for AUC, modulator BJ.CHX: reference of the scale not given here; for AUC, modulator BJ.Co2+: reference of the scale not given here; for AUC, modulator BJ.DPQ: reference of the scale not given here; for AUC, modulator BJ.Gd3+: reference of the scale not given here; for AUC, modulator BJ.LNAME: reference of the scale not given here; for AUC, modulator BJ.NAD+: reference of the scale not given here; for AUC, modulator BJ.NMMA: reference of the scale not given here; for AUC, modulator BJ.Nec-1: reference of the scale not given here; for AUC, modulator BJ.Pepstatin: reference of the scale not given here; for AUC, modulator BJ.TLCK: reference of the scale not given here

O=[N+]([O-])c1ccc(O)c([N+](=O)[O-])c1
AUC, modulator HT.3MA [1]: −0.1332 | AUC, modulator BJ.3MA [2]: −0.008182 | AUC, modulator BJ.ALLN [2]: −0.03838 | AUC, modulator BJ.Boc D [2]: −0.01714 | AUC, modulator BJ.CHX [2]: 0.189 | AUC, modulator BJ.Co2+ [2]: −0.008316 | AUC, modulator BJ.DPQ [2]: −0.03251 | AUC, modulator BJ.Gd3+ [2]: −0.01413 | AUC, modulator BJ.LNAME [2]: −0.0202 | AUC, modulator BJ.Lmin [2]: −0.0205 | AUC, modulator BJ.NAD+ [2]: 0.06986 | AUC, modulator BJ.NMMA [2]: −0.02735 | AUC, modulator BJ.Nec-1 [2]: −0.001955 | AUC, modulator BJ.Pepstatin [2]: 0.05394 | AUC, modulator BJ.TLCK [2]: −0.0426 | AUC, modulator BJ.atoc [2]: 0.02318 | AUC, modulator BJ.trolox [2]: 0.009957 | AUC, modulator BJ.zVAD [2]: −0.0001198

COc1ccccc1/C=C/C1(C(=O)NC2CCCC2)CC(=O)N1c1ccc(F)cc1 (centres unmarked) [CIL1]
AUC HT.ATA [1]: −0.0478 | AUC HT.ActD [1]: −0.04057 | AUC HT.BHA [1]: 0.02691 | AUC HT.BHT [1]: −0.0849 | AUC HT.BocD [1]: −0.01644 | AUC HT.CHX [1]: 0.09163 | AUC HT.Co2+ [1]: 0.2048 | AUC HT.CspA [1]: −0.04542 | AUC HT.DPQ [1]: 0.04203 | AUC HT.EGTA [1]: −0.006602 | AUC HT.Gd3+ [1]: −0.03215 | AUC HT.LNAME [1]: 0.03977 | AUC HT.Lmim [1]: 0.08631 | AUC HT.NAD+ [1]: 0.07889 | AUC HT.NMMA [1]: −0.0482 | AUC HT.Nec-1 [1]: 0.02294 | AUC HT.Pepstatin [1]: 0.001474 | AUC HT.SP600125 [1]: −0.04919 | AUC HT.TLCK [1]: 0.04647 | AUC HT.U0126 [1]: 0.1491 | HT.atoc (AUC) [1]: 0.216 | HT.bCarotene (AUC) [1]: −0.02846 | HT.deferox (AUC) [1]: 0.08359 | HT.digoxin (AUC) [1]: −0.003809 | HT.trolox (AUC) [1]: 0.02477 | HT.zVAD (AUC) [1]: −0.0551 | AUC, modulator HT.3MA [1]: −0.001968 | AUC, modulator HT.ALLN [1]: 0.1053 | AUC, modulator BJ.3MA [2]: 0.0947 | AUC, modulator BJ.ALLN [2]: −0.03319 | AUC, modulator BJ.Boc D [2]: −0.0465 | AUC, modulator BJ.CHX [2]: −0.08681 | AUC, modulator BJ.Co2+ [2]: 0.09572 | AUC, modulator BJ.DPQ [2]: −0.01655 | AUC, modulator BJ.Gd3+ [2]: −0.001577 | AUC, modulator BJ.LNAME [2]: −0.02103 | AUC, modulator BJ.Lmin/NAD+ [2]: −0.01947 | AUC, modulator BJ.Lmin [2]: −0.0142 | AUC, modulator BJ.NAD+ [2]: 0.03941 | AUC, modulator BJ.NMMA [2]: −0.02498 | AUC, modulator BJ.Nec-1 [2]: 0.0816 | AUC, modulator BJ.Pepstatin [2]: 0.07639 | AUC, modulator BJ.TLCK [2]: 0.01375 | AUC, modulator BJ.atoc [2]: 0.05385 | AUC, modulator BJ.trolox [2]: 0.08302 | AUC, modulator BJ.zVAD [2]: −0.04705

CC1=CC(C)(C)Nc2ccc(OC(=O)c3ccco3)cc21 [CIL2]
AUC HT.ATA [1]: 0.03084 | AUC HT.ActD [1]: −0.005228 | AUC HT.BHA [1]: −0.03767 | AUC HT.BHT [1]: −0.1327 | AUC HT.BocD [1]: 0.1395 | AUC HT.CHX [1]: 0.1414 | AUC HT.Co2+ [1]: −0.132 | AUC HT.CspA [1]: 0.01224 | AUC HT.DPQ [1]: −0.003125 | AUC HT.EGTA [1]: −0.005627 | AUC HT.Gd3+ [1]: −0.02304 | AUC HT.LNAME [1]: 0.02625 | AUC HT.Lmim [1]: −0.03013 | AUC HT.NAD+ [1]: 0.04925 | AUC HT.NMMA [1]: −0.03029 | AUC HT.Nec-1 [1]: −0.01273 | AUC HT.Pepstatin [1]: 0.008816 | AUC HT.SP600125 [1]: −0.003684 | AUC HT.TLCK [1]: 0.02037 | AUC HT.U0126 [1]: 0.02089 | HT.atoc (AUC) [1]: 0.04757 | HT.bCarotene (AUC) [1]: −0.02687 | HT.deferox (AUC) [1]: 0.02963 | HT.digoxin (AUC) [1]: −0.01222 | HT.trolox (AUC) [1]: −0.03094 | HT.zVAD (AUC) [1]: −0.02828 | AUC, modulator HT.3MA [1]: 0.07178 | AUC, modulator HT.ALLN [1]: 0.05292 | AUC, modulator BJ.3MA [2]: 0.06431 | AUC, modulator BJ.ALLN [2]: −0.03978 | AUC, modulator BJ.Boc D [2]: −0.03808 | AUC, modulator BJ.CHX [2]: 0.03999 | AUC, modulator BJ.Co2+ [2]: −0.1362 | AUC, modulator BJ.DPQ [2]: 0.003929 | AUC, modulator BJ.Gd3+ [2]: 0.01322 | AUC, modulator BJ.LNAME [2]: −0.004423 | AUC, modulator BJ.Lmin/NAD+ [2]: −0.01944 | AUC, modulator BJ.Lmin [2]: 0.008318 | AUC, modulator BJ.NAD+ [2]: 0.03383 | AUC, modulator BJ.NMMA [2]: −0.005234 | AUC, modulator BJ.Nec-1 [2]: 0.0318 | AUC, modulator BJ.Pepstatin [2]: 0.05923 | AUC, modulator BJ.TLCK [2]: 0.06974 | AUC, modulator BJ.atoc [2]: −0.01149 | AUC, modulator BJ.trolox [2]: 0.001657 | AUC, modulator BJ.zVAD [2]: −0.003959
